Values of other authors as cited in US20180110725A1, “COMPOSITIONS, METHODS AND KITS FOR THE SAFE INHALED DELIVERY OF TARGETED OPIOIDS FOR THE TREATMENT OF PAIN AND ADDICTION” (Somniferum Labs LLC, priority 2016, published 2018).

Assays:
[1] = room temperature
μ-1 opioid receptor = μ-1 opioid receptor (Homo sapiens, UniProt P35372); details: Wittwer and Kern, 2006
[2] = in vivo

Sequence of μ-1 opioid receptor (P35372 whole entry): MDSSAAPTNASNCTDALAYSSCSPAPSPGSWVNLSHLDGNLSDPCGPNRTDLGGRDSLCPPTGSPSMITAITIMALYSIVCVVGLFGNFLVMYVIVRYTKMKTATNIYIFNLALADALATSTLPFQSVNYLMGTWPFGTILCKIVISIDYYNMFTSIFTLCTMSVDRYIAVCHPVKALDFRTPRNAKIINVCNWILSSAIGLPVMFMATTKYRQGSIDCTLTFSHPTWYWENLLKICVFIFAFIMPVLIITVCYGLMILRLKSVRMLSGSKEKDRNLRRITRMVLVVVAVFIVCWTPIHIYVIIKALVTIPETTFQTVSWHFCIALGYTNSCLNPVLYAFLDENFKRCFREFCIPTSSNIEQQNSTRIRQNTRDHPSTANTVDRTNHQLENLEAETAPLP

Compound | duration of activity [2] | other results
Br.CN1CC[C@]23c4c5ccc(O)c4O[C@H]2[C@@H](O[C@@H]2O[C@H](C(=O)O)[C@@H](O)[C@H](O)[C@H]2O)C=C[C@H]3[C@H]1C5 [Morphine-6 glucuronide bromide] |  | storage time with little or no degradation [1]: up to 6 years
CN1CC[C@]23c4c5ccc(O)c4O[C@H]2[C@@H](O[C@@H]2O[C@H](C(=O)O)[C@@H](O)[C@H](O)[C@H]2O)C=C[C@H]3[C@H]1C5 [Morphine-6-glucuronide] |  | potency relative to morphine (μ-1 opioid receptor): higher potency than morphine
CC(=O)O.CN1CCC23c4c5ccc(O)c4OC2C(OC2OC(C(=O)O)C(O)C(O)C2O)C=CC3C1C5 (stereo not shown) [morphine-6-glucuronide acetate] | relatively long duration of activity | 
morphine-6-glucuronide sulfate | relatively long duration of activity | 
